From ChEMBL document CHEMBL2073899, “Quantitative distinctions of active site molecular recognition by P-glycoprotein and cytochrome P450 3A4” (Chem Res Toxicol, 2001)

target: ATP-dependent translocase ABCB1 (Homo sapiens, UniProt P08183); assay: TP_TRANSPORTER: inhibition of Daunorubicin efflux in NIH-3T3-G185 cells
Sequence (P08183 whole entry): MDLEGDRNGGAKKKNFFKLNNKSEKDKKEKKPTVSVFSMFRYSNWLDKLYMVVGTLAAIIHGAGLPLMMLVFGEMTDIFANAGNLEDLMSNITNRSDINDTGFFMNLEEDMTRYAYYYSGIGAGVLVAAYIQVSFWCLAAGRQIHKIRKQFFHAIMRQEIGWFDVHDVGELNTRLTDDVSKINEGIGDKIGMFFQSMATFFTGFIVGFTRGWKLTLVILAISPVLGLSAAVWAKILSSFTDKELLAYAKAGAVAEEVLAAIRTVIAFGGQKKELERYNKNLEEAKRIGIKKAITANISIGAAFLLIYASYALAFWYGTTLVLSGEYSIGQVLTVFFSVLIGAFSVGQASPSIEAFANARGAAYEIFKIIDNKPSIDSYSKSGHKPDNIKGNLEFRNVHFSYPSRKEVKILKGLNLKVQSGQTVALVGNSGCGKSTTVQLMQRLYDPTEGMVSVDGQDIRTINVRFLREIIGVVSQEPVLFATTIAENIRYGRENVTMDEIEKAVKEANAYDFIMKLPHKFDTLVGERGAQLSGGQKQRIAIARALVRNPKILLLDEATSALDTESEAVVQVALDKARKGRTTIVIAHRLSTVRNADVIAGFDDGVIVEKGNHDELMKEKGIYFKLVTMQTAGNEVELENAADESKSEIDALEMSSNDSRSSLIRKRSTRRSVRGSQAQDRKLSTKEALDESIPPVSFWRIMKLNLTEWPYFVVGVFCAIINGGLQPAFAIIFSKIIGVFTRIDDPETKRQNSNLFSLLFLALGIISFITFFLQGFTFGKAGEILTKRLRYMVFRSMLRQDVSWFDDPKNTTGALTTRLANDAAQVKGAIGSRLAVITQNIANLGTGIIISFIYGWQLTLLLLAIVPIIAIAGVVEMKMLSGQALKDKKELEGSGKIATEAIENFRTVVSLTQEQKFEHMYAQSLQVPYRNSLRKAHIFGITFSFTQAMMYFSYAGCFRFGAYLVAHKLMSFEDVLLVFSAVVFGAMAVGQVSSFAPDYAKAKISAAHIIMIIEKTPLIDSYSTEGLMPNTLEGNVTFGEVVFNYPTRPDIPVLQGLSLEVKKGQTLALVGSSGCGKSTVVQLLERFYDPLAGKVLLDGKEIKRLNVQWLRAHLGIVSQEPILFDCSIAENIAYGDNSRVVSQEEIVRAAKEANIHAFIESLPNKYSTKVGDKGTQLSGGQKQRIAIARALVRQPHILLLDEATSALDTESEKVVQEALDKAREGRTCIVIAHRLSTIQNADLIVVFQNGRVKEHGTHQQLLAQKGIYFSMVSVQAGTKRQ

Which IC50 does the source give for `CC(C)[C@@H]1NC(=O)[C@H](C)OC(=O)[C@@H](C(C)C)NC(=O)[C@@H](C(C)C)OC(=O)[C@H](C(C)C)NC(=O)[C@H](C)OC(=O)[C@@H](C(C)C)NC(=O)[C@@H](C(C)C)OC(=O)[C@H](C(C)C)NC(=O)[C@H](C)OC(=O)[C@@H](C(C)C)NC(=O)[C@@H](C(C)C)OC1=O` [VALINOMYCIN] here?
Its IC50 is 3.2 µM.

`COC(=O)C1=C(C)NC(C)=C(C(=O)OC)C1c1ccccc1[N+](=O)[O-]` [NIFEDIPINE] was tested. Which IC50 did it give?
Its IC50 is 113 µM.

How did the IC50 turn out when `COc1ccc(CCNCCCC(C#N)(c2ccc(OC)c(OC)c2)C(C)C)cc1OC` (stereo unspecified) [NORVERAPAMIL] was run?
The IC50 was 0.9 µM.

How did the IC50 turn out when `CC(=O)S[C@@H]1CC2=CC(=O)CC[C@]2(C)[C@H]2CC[C@@]3(C)[C@@H](CC[C@@]34CCC(=O)O4)[C@H]12` [SPIRONOLACTONE] was run?
Its IC50 is 23.6 µM.

`COc1ccc(CCN(C)CCCC(C#N)(c2cc(OC)c(OC)c(OC)c2)C(C)C)cc1OC` (stereo unspecified) [GALLOPAMIL] was tested. Which IC50 did it give?
The IC50 was 3.2 µM.

How did the IC50 turn out when `COc1ccc(-c2cc(=O)c3c(OC)c(OC)c(OC)c(OC)c3o2)cc1OC` [NOBILETIN] was run?
The IC50 was 11.5 µM.
